Results as given in PubChem BioAssay AID504746 (National Center for Advancing Translational Sciences (NCATS), 2011).

Tested on: mouse liver microsomes + NADPH, LC-MS/MS % remaining
Experiment: Inhibitors of N370S glucocerebrosidase as a Potential Chaperone Treatment of Gaucher Disease: Metabolic Stability Profile with NADPH
Settings: at 5 µM; higher = more stable (active)
Source text: Glucocerebrosidase (GC) catalyzes the hydrolysis of beta-glucocerebroside to glucose and ceramide in lysosomes. Mutations in the glucocerebrosidase gene result in Gaucher disease, an autosomal recessive lysosomal storage disorder. Many of the mutations encountered in patients with Gaucher disease are missense alterations that may cause misfolding, decreased stability and/or mistrafficking of this lysosomal protein. […] These inhibitors include iminosugar analogs and three non-iminosugar inhibitors identified from a previous HTS of 62,000 compounds with the wild type recombinant enzyme. After further testing a probe has been identified and was characterized though AMDE tests. Mouse liver microsomes are created through broken up endoplasmic reticulum from mouse liver. These liver microsomes contain many drug metabolizing enzymes, such as Cytochome P-450s and flavin-containing monooxygenases. […] NIH Chemical Genomics Center [NCGC] NIH Molecular Libraries Probe Production Centers Network [MLPCN] MLPCN Grant: MH086442-01 Assay Submitter (PI): Wei Zheng
5uM of compound is incubated with mouse liver microsome in the presence of NADPH; the reference compounds are verapamil and warfarin. Compounds are incubated and samples are analyzed with LC-MS/MS.

## S=C(NCCCc1cnc[nH]1)NCCCN(Cc1ccc(Cl)c(Cl)c1)c1ccc(Br)cn1
  percent remaining: 58%
